Assay results: paper PMC8918352, “Structure and activity of the DHNA Coenzyme-A Thioesterase from Staphylococcus aureus providing insights for innovative drug development” (Scientific Reports, 2022)

Key:
[1] = target: 1,4-dihydroxy-2-naphthoyl coenzyme A thioesterase from S. aureus (S. aureus); assay: DLS + SAXS; SaDHNA at 0.8 to 2.5 mg/ml in 100 mM sodium phosphate buffer pH 6.0, 150 mM NaCl, 10 °C; ab initio model with GASBOR
[2] = target: 1,4-dihydroxy-2-naphthoyl coenzyme A thioesterase from S. aureus (S. aureus); assay: crystal structure; space group P2_(1), four molecules in the asymmetric unit; crystals from 100 mM HEPES-Na+ pH 7.0, 1.0 M lithium sulphate, 293 K; 1.3 Å
[3] = tested on: SaDHNA WT (DHNA Coenzyme-A thioesterase); assay: Thioesterase activity of SaDHNA wild type (DTNB/TNB, 412 nm); type: biochemical, Staphylococcus aureus
Method: (§1) To obtain some initial information about SaDHNA thioesterase substrate specificity, two different substrates classified according to their CoA chain length and unsaturation degree were assessed. The longest acyl-CoA chain substrate contained eighteen acyl saturated chain stearoyl-CoA (C18:0), while the shortest chain contained four acyl chain crotonyl-CoA with one unsaturation (C4:1). Thioesterase activity was observed by the increase in free thiol-CoA thioester hydrolysis formation of the 2-nitro-5-thiobenzoate anion (TNB^2−), resulting from the reaction of the thiolate anion (RS^−) with Ellman’s reagent (DTNB^2−) and one mixed disulphide (R-S-TNB^−). […]
(§2) The thioesterase activity of SaDHNA was measured according to a protocol of Rodríguez-Guilbe and co-workers[36]. In a ELISA microplate the formation of 2-nitro-5-thiobenzoate anion (TNB2-) by the reaction of thiolate anion (RS^−) with Ellman′s reagent (DTNB^2−) and one mixed disulphide (R-S-TNB^−) catalysed by purified SaDHNA wild type (WT), D16A and E31N was followed by monitoring the change in absorbance of thionitrobenzoic acid (TNB) at 412 nm (extinction coefficient of 13.600 M^−1 cm^−1) using a TECAN GENios plate reader (XFLUOR4 Version: V 4.40, MTX Lab Systems, Inc, USA). […] In addition, uncatalyzed reaction rates were monitored by the combination of same reagents without the enzyme. […]

[4] = tested on: SaDHNA D16A; assay: Thioesterase activity of SaDHNA D16A mutant (DTNB/TNB, 412 nm); type: biochemical, Staphylococcus aureus
Method: as §1, §2

[5] = tested on: SaDHNA E31N; assay: Thioesterase activity of SaDHNA E31N mutant (DTNB/TNB, 412 nm); type: biochemical, Staphylococcus aureus; settings: stearoyl-CoA as substrate, vs background level
Method: as §1, §2

[6] = tested on: HpYbgC; settings: in contrast to EcYbgC and HiYbgC; ref [38]; cited from earlier work
Source text: In fact, we observed the presence of a long tunnel associated with the binding site of the acyl moiety of the substrate for HpYbgC, which is ...

[7] = tested on: SaDHNA thioesterase; assay: Inhibition of SaDHNA thioesterase activity by peptides; type: biochemical, Staphylococcus aureus; settings: 100 µM peptide, 10 µM SaDHNA, 50 mM HEPES-K+ pH 7.5, 1 mM DTNB, room temperature, 412 nm; in comparison to control assay without peptides; triplicates
Source text: According to the docking analysis, the protein-peptide complex is mediated mainly through six hydrogen bonds formed between Pep-1 and residues present in the putative active site. The benzoyl ring of the tyrosine of Pep-1 has non-covalent π-stacking interactions with the Try45 benzoyl ring of the SaDHNA structure, as well as with the side chain of Ser55 through a hydrogen bond. The residues important for the substrate binding and activity, Glu31 and Asp16, respectively, are predicted to interact with the amide of the peptide backbone and with the side chain of serine of the peptide via hydrogen bonds as well. […]
The thioesterase activity of SaDHNA was measured according to a protocol of Rodríguez-Guilbe and co-workers[36]. In a ELISA microplate the formation of 2-nitro-5-thiobenzoate anion (TNB2-) by the reaction of thiolate anion (RS^−) with Ellman′s reagent (DTNB^2−) and one mixed disulphide (R-S-TNB^−) catalysed by purified SaDHNA wild type (WT), D16A and E31N was followed by monitoring the change in absorbance of thionitrobenzoic acid (TNB) at 412 nm (extinction coefficient of 13.600 M^−1 cm^−1) using a TECAN GENios plate reader (XFLUOR4 Version: V 4.40, MTX Lab Systems, Inc, USA). […] In addition, uncatalyzed reaction rates were monitored by the combination of same reagents without the enzyme.

[8] = tested on: SaDHNA; assay: Intrinsic (tryptophan) fluorescence quenching of SaDHNA by peptides, Stern–Volmer analysis; type: binding, Staphylococcus aureus; settings: for bimolecular quenching constant (Kq) / shift of SaDHNA emission spectra maximum / fluorescence intensity of SaDHNA: 60 nM SaDHNA; for bimolecular quenching constant (Kq): 100 mM sodium phosphate pH 6.0, 150 mM NaCl, 22 °C, excitation 290 nm, emission 300–420 nm, peptide 60–1000 nM, from second, slower quenching step, five assays; for shift of SaDHNA emission spectra maximum / fluorescence intensity of SaDHNA: peptide up to 1000 nM, pH 6.0, 22 °C; for shift of SaDHNA emission spectra maximum: maximum emission near 340 nm; for quenching mechanism: from Kq above diffusive limit, complex association between SaDHNA and peptides
Method: Fluorescence spectroscopy was employed to analyse the inhibition of SaDHNA by the aforementioned peptides. The intrinsic fluorescence quenching was assessed for a gradient concentration of Pep-1 and Pep-2. The emission spectra of SaDHNA in buffer only and SaDHNA quenched with different concentrations of Pep-1 and Pep-2 are shown in Fig. 5a,b, respectively. The amino acid sequence of SaDHNA has three tryptophan residues, W29, W79 and W129 and a corresponding maximum emission near 340 nm. […] According to the quenching theory this may indicate a decrease in the lifetime of the excited state, corresponding to an additional rate process that depopulates the excited state and/or the formation of a non-radioactive ground state between the fluorophore and the quencher resulting in a non-fluorescence emission[25],[26].
The Stern–Volmer theory explains the relationship between fluorescence intensity and the presence of a quencher. The data obtained with different concentrations of peptides were analysed independently of the quenching process. Thereby the bimolecular quenching constant (Kq) assigned to the efficiency of quenching and the binding or affinity constant (Ka) for the associated complex were calculated[27],[28]. […] To investigate the quenching process and to estimate Kq and Ka the data from the second and slower step were considered (Fig. 6b,c, respectively). To estimate the bimolecular quenching constant (Kq), the Stern–Volmer quenching constant (Ksv) was determined from the slopes of Io/I versus Q (quencher concentration) (Fig. 6b) and […], which corresponds approximately to the lifetime of a biomolecule fluorophore in the absence of a quenching agent. Therefore, Kq [M^−1 s^−1] for Pep-1 and Pep-2 were 13.3 × 10^12 ± 0.6 × 10^12 and 9.3 × 10^12 ± 1.8 × 10^12, respectively. According to the diffusion controlled quenching theory Kq values close to 1 × 10 ^10 M^−1 s^−1 are associated with a process involving dynamic quenchers, whereas values of Kq larger than the diffusive limit indicate binding interactions between the fluorophore and the quencher.
As the estimated Kq presented higher values than expected for dynamic quenching, we analysed the data applying static quenching theory to estimate the affinity constant Ka for the associated complex. The intercept of log ((Io-I)/I) versus log Q plot (Fig. 6c) is equal to the logarithm of Ka.. Thereby the intercept antilog calculation determines the Ka values for both peptides.
Fluorescence measurements were performed using a Cary eclipse fluorescence spectrophotometer coupled with a peltier temperature control (Agilent, USA). All assays were carried out in 1 mL cuvettes at 22 °C with excitation/emission slits at 20 nm each. The applied excitation wavelength was 290 nm and emission spectra were collected in the range of 300 up to 420 nm in increments of 1 nm. SaDHNA quenching experiments were performed with two peptides (Pep-1: YGSDGR and Pep-2: EGEYE, using a concentration range from 60 up to 1000 nM. SaDHNA at a concentration of 60 nM in 100 mM sodium phosphate buffer pH 6.0, 150 mM NaCl was applied and small volumes of the stock peptide solution were sequentially added to the cuvette for quenching analysis. Each SaDHNA-peptide assay was performed five times. As a control the fluorescence of all buffer and all peptide solutions were measured to correct the observed fluorescence accordingly. The quenching process was assessed by the Stern–Volmer theory.

[9] = target: 1,4-dihydroxy-2-naphthoyl coenzyme A thioesterase from S. aureus (S. aureus); assay: other fluorescence titration; quenching of the intrinsic tryptophan fluorescence of 60 nM SaDHNA by peptide added from 60 up to 1000 nM; 100 mM sodium phosphate buffer pH 6.0, 150 mM NaCl, 22 °C; excitation 290 nm; Stern-Volmer and static quenching analysis of the second, slower quenching step

| Molecule | SaDHNA thioesterase activity in presence of peptide (in words) [7] | bimolecular quenching constant (Kq) [8] [M⁻¹ s⁻¹] | shift of SaDHNA emission spectra maximum [8] | fluorescence intensity of SaDHNA [8] | quenching mechanism [8] | also measured |
| --- | --- | --- | --- | --- | --- | --- |
| 1,4-dihydroxy-2-naphthoyl coenzyme A thioesterase from S. aureus | – | – | – | – | – | stoichiometry N [1]: 4; stoichiometry N [2]: 4 |
| C/C=C/C(=O)SCCNC(=O)CCNC(=O)[C@H](O)C(C)(C)COP(=O)(O)OP(=O)(O)OC[C@H]1O[C@@H](n2cnc3c(N)ncnc32)[C@H](O)[C@@H]1OP(=O)(O)O [Crotonyl-CoA (C4:1), crotonyl-CoA] | – | – | – | – | – | Enzymatic activity (specific activity) ([3]; 10 μM enzyme, 50 mM HEPES-K+ pH 7.5, 1 mM DTNB, room temperature, 200 μl, absorbance 412 nm, 100 μM stearoyl-CoA or 1 mM crotonyl-CoA as substrate, triplicates): 0.27 ± 0.002 nmol TNB/min/mg protein |
| CCCCCCCCCCCCCCCCCC(=O)SCCNC(=O)CCNC(=O)[C@H](O)C(C)(C)COP(=O)(O)OP(=O)(O)OC[C@H]1O[C@@H](n2cnc3c(N)ncnc32)[C@H](O)[C@@H]1OP(=O)(O)O [Stearoyl-CoA (C18:0), stearoyl-CoA] | – | – | – | – | – | higher specific activity toward the extended acyl CoA chain in comparison to the short chain crotonyl-CoA ([3]; stearoyl-CoA vs crotonyl-CoA): 474 fold; Enzymatic activity (specific activity) ([4]; D16A mutant, 10 μM enzyme, 50 mM HEPES-K+ pH 7.5, 1 mM DTNB, room temperature, 412 nm, 100 μM stearoyl-CoA, triplicates): 0.43 ± 0.02 nmol TNB/min/mg protein; decrease of hydrolysis rate of stearoyl-CoA by the D16A mutant ([4]; D16A vs WT, stearoyl-CoA as substrate): 300 fold; activity of E31N mutant toward stearoyl-CoA (in words) [5]: no activity was detected above the background level; activity of HpYbgC towards long acyl chains [6]: more active |
| EGEYE [Pep-2] | no detectable activity | 9.3e+12 ± 1.8e+12 | slight blue shift of the emission | decrease in the fluorescence intensity | static mechanism | – |
| YGSDGR [Pep-1] | no detectable activity | 1.33e+13 ± 6e+11 | did not shift the emission spectra maximum | decrease in the fluorescence intensity | static mechanism | higher binding affinity to SaDHNA than Pep-2 ([8]; ratio of Ka, Pep-1 vs Pep-2): 21 fold |
| EGEYE [Pep-2] | – | – | – | – | – | Kq (bimolecular quenching constant) [9]: 9.3e+12 M⁻¹ s⁻¹ |
